Columns and labels:
Rel synthetase (ST) = assay: Inhibition of Rel synthetase activity: (p)ppGpp production from GDP or GTP and radioactive ATP, TLC; format: biochemical; details: enzyme with GDP or GTP and radioactive ATP, absence or presence of compound
Procedure: (§1) As indicated above, the “Yes/No” in the 5th and 6th columns of TABLES A to F indicates whether there is, or respectively is not an inhibition of the synthetase (ST) and/or hydrolase (HD) activity. […] The action of a candidate compound is evaluated based on its effect on the production of (p)ppGpp. Therefore, in order to assess the potential influence of a candidate compound on synthesis activity, the enzyme was mixed with GDP or GTP and radioactive ATP to produce (p)ppGpp in absence or presence of the candidate compound. Subsequently, the reaction is developed by thin layer chromatography (TLC). In an alternative assay that enables determining the effect of a compound on the hydrolysis activity, radioactive (p)ppGpp is incubated with the enzyme and any decrease of the (p)ppGpp spot on TLC is evaluated when the assay is conducted in presence of the compound and compared to control conditions where no candidate compound is added during incubation.

Rel hydrolase (HD) = assay: Inhibition of Rel hydrolase activity: decrease of radioactive (p)ppGpp spot on TLC; format: biochemical; details: radioactive (p)ppGpp incubated with enzyme, with vs without compound
Procedure: as §1

CSCCC(NS(=O)(=O)c1ccc2c3c(cccc13)C(=O)N2)C(=O)O (stereo not shown) [Compound 47]
ST (inhibition of the synthetase activity) (Rel synthetase (ST)): Yes
HD (inhibition of the hydrolase activity) (Rel hydrolase (HD)): Yes

Cc1nc2cc(CC(=O)N[C@@H]3COCC[C@@H]3OCC(=O)O)ccc2[nH]1 [Compound 28]
ST (inhibition of the synthetase activity) (Rel synthetase (ST)): No
HD (inhibition of the hydrolase activity) (Rel hydrolase (HD)): Yes

Cc1ccc(CC(=O)Nc2ccc(N3CCN(CC(=O)NC(C)(C)C)CC3)cc2C(=O)O)cc1 [Compound 70]
ST (inhibition of the synthetase activity) (Rel synthetase (ST)): Yes
HD (inhibition of the hydrolase activity) (Rel hydrolase (HD)): Yes

Cc1c(Br)c([N+](=O)[O-])nn1CC(=O)Nc1ccc(Cl)cc1Cl [Compound 67]
ST (inhibition of the synthetase activity) (Rel synthetase (ST)): Yes
HD (inhibition of the hydrolase activity) (Rel hydrolase (HD)): Yes

O=C(O)CCNS(=O)(=O)c1cc2c3c(cccc3c1)C(=O)NC2=O [Compound 51]
ST (inhibition of the synthetase activity) (Rel synthetase (ST)): Yes
HD (inhibition of the hydrolase activity) (Rel hydrolase (HD)): Yes

COc1ccc(-c2cc3ccc(OCc4nnn[nH]4)cc3oc2=O)cc1 [Compound 12]
ST (inhibition of the synthetase activity) (Rel synthetase (ST)): Yes
HD (inhibition of the hydrolase activity) (Rel hydrolase (HD)): No

O=C(O)C1CCN(S(=O)(=O)c2ccc3[nH]c(=O)oc3c2)CC1 [Compound 42]
ST (inhibition of the synthetase activity) (Rel synthetase (ST)): Yes
HD (inhibition of the hydrolase activity) (Rel hydrolase (HD)): Yes

O=C(O)CC(CNC(=O)CCn1nnc2ccccc2c1=O)c1ccc(Cl)cc1 (stereo not shown) [Compound 4]
ST (inhibition of the synthetase activity) (Rel synthetase (ST)): No
HD (inhibition of the hydrolase activity) (Rel hydrolase (HD)): Yes

O=C(O)c1cc(NS(=O)(=O)c2ccc3c4c(cccc24)C(=O)N3)cnc1Cl [Compound 49]
ST (inhibition of the synthetase activity) (Rel synthetase (ST)): Yes
HD (inhibition of the hydrolase activity) (Rel hydrolase (HD)): Yes

Cc1ccc(-n2cnnn2)cc1OCc1nnn[nH]1 [Compound 57]
ST (inhibition of the synthetase activity) (Rel synthetase (ST)): No
HD (inhibition of the hydrolase activity) (Rel hydrolase (HD)): Yes

O=C(CC(C(=O)O)C1CCCO1)NCCc1ccc2c(c1)OCO2 (stereo not shown) [Compound 36]
ST (inhibition of the synthetase activity) (Rel synthetase (ST)): no
HD (inhibition of the hydrolase activity) (Rel hydrolase (HD)): yes

Cc1ccccc1-n1c(SCC(=O)NC(=O)c2cccc([N+](=O)[O-])c2)nnc1-c1ccncc1 [Compound 65]
ST (inhibition of the synthetase activity) (Rel synthetase (ST)): No
HD (inhibition of the hydrolase activity) (Rel hydrolase (HD)): Yes

Cc1ccc(CC(=O)Nc2ccc(N3CCC(N4CCCCC4)CC3)cc2C(=O)O)cc1 [Compound 74]
ST (inhibition of the synthetase activity) (Rel synthetase (ST)): Yes
HD (inhibition of the hydrolase activity) (Rel hydrolase (HD)): Yes

O=C(O)Cn1cc(/C=C2/C(=O)Nc3ccccc32)c2ccccc21 [Compound 40]
ST (inhibition of the synthetase activity) (Rel synthetase (ST)): Yes
HD (inhibition of the hydrolase activity) (Rel hydrolase (HD)): No

Cc1nnc2ccc(N3CCN(C(=O)Nc4ccccc4[N+](=O)[O-])CC3)nn12 [Compound 56]
ST (inhibition of the synthetase activity) (Rel synthetase (ST)): No
HD (inhibition of the hydrolase activity) (Rel hydrolase (HD)): Yes

O=C(Nc1ccc(Cl)c([N+](=O)[O-])c1)c1ccc(-c2cccc(Cl)c2Cl)o1 [Compound 68]
ST (inhibition of the synthetase activity) (Rel synthetase (ST)): Yes
HD (inhibition of the hydrolase activity) (Rel hydrolase (HD)): Yes

O=C(O)CNS(=O)(=O)c1ccc2c3c(cccc13)C(=O)N2 [Compound 48]
ST (inhibition of the synthetase activity) (Rel synthetase (ST)): Yes
HD (inhibition of the hydrolase activity) (Rel hydrolase (HD)): Yes

O=C(O)C1Cc2ccccc2CN1C(=O)Cn1nnc2ccccc21 (stereo not shown) [Compound 6]
ST (inhibition of the synthetase activity) (Rel synthetase (ST)): No
HD (inhibition of the hydrolase activity) (Rel hydrolase (HD)): Yes

Fc1cccc(-c2nnn(Cc3nnn[nH]3)n2)c1 [Compound 58]
ST (inhibition of the synthetase activity) (Rel synthetase (ST)): No
HD (inhibition of the hydrolase activity) (Rel hydrolase (HD)): Yes

O=C1Nc2ccccc2/C1=N/N=C/c1ccc(-c2ccccc2[N+](=O)[O-])o1 [Compound 41]
ST (inhibition of the synthetase activity) (Rel synthetase (ST)): Yes
HD (inhibition of the hydrolase activity) (Rel hydrolase (HD)): Yes

Cc1c(CC(=O)O)c(=O)oc2cc(O)cc(O)c12 [Compound 1]
ST (inhibition of the synthetase activity) (Rel synthetase (ST)): No
HD (inhibition of the hydrolase activity) (Rel hydrolase (HD)): Yes

O=C1N/C(=N\N=C\c2cccc3ccccc23)SC1Cc1ccccc1[N+](=O)[O-] (stereo not shown) [Compound 24]
ST (inhibition of the synthetase activity) (Rel synthetase (ST)): Yes
HD (inhibition of the hydrolase activity) (Rel hydrolase (HD)): Yes

Cc1cc(OCC(=O)O)c2c(C)c(Cc3ccccc3)c(=O)oc2c1 [Compound 11]
ST (inhibition of the synthetase activity) (Rel synthetase (ST)): Yes
HD (inhibition of the hydrolase activity) (Rel hydrolase (HD)): No

O=C(Nc1nnn[nH]1)c1cc(-c2ccc3c(c2)CCO3)[nH]n1 [Compound 32]
ST (inhibition of the synthetase activity) (Rel synthetase (ST)): No
HD (inhibition of the hydrolase activity) (Rel hydrolase (HD)): Yes

O=C(O)CCNS(=O)(=O)c1ccc2[nH]c(=O)[nH]c2c1 [Compound 25]
ST (inhibition of the synthetase activity) (Rel synthetase (ST)): No
HD (inhibition of the hydrolase activity) (Rel hydrolase (HD)): Yes

O=c1oc2cc(OCc3nnn[nH]3)ccc2cc1-c1ccccc1 [Compound 13]
ST (inhibition of the synthetase activity) (Rel synthetase (ST)): Yes
HD (inhibition of the hydrolase activity) (Rel hydrolase (HD)): No

Cc1[nH]c2ccnn2c(=O)c1CC(=O)N(CCC(=O)O)CC1CCCO1 (stereo not shown) [Compound 54]
ST (inhibition of the synthetase activity) (Rel synthetase (ST)): No
HD (inhibition of the hydrolase activity) (Rel hydrolase (HD)): Yes

O=C1OCc2ccc(-c3ccc(/C=N/Nc4nnn[nH]4)o3)cc21 [Compound 45]
ST (inhibition of the synthetase activity) (Rel synthetase (ST)): Yes
HD (inhibition of the hydrolase activity) (Rel hydrolase (HD)): Yes

Cc1c(Cc2ccccc2)c(=O)oc2cc(OCC(=O)O)ccc12 [Compound 10]
ST (inhibition of the synthetase activity) (Rel synthetase (ST)): Yes
HD (inhibition of the hydrolase activity) (Rel hydrolase (HD)): No

O=C1Nc2ccccc2/C1=N\c1ccc(O)c([N+](=O)[O-])c1 [Compound 38]
ST (inhibition of the synthetase activity) (Rel synthetase (ST)): Yes
HD (inhibition of the hydrolase activity) (Rel hydrolase (HD)): No

O=[N+]([O-])c1ccc(Sc2nnc3c(n2)[nH]c2ccccc23)c([N+](=O)[O-])c1 [Compound 64]
ST (inhibition of the synthetase activity) (Rel synthetase (ST)): No
HD (inhibition of the hydrolase activity) (Rel hydrolase (HD)): Yes

O=[N+]([O-])c1cccc(CN2CCN(S(=O)(=O)c3ccc4ccccc4c3)CC2)c1 [Compound 5]
ST (inhibition of the synthetase activity) (Rel synthetase (ST)): No
HD (inhibition of the hydrolase activity) (Rel hydrolase (HD)): Yes

CC(NC(=O)c1cc([N+](=O)[O-])c[nH]1)c1ccc2ccccc2c1 (stereo not shown) [Compound 23]
ST (inhibition of the synthetase activity) (Rel synthetase (ST)): Yes
HD (inhibition of the hydrolase activity) (Rel hydrolase (HD)): Yes

O=C(Nc1ccc(-n2cnc3ccccc32)nc1)c1ccc([N+](=O)[O-])o1 [Compound 43]
ST (inhibition of the synthetase activity) (Rel synthetase (ST)): Yes
HD (inhibition of the hydrolase activity) (Rel hydrolase (HD)): Yes

Cc1cc(C(=O)N2CCN(c3ncccn3)CC2)c(N)c([N+](=O)[O-])c1 [Compound 63]
ST (inhibition of the synthetase activity) (Rel synthetase (ST)): No
HD (inhibition of the hydrolase activity) (Rel hydrolase (HD)): Yes

O=c1oc2cc(OCc3nnn[nH]3)ccc2cc1-c1ccc(Cl)cc1 [Compound 20]
ST (inhibition of the synthetase activity) (Rel synthetase (ST)): Yes
HD (inhibition of the hydrolase activity) (Rel hydrolase (HD)): Yes

O=C1c2ccccc2C(=O)N1CCCc1nc(-c2cccc([N+](=O)[O-])c2)no1 [Compound 33]
ST (inhibition of the synthetase activity) (Rel synthetase (ST)): No
HD (inhibition of the hydrolase activity) (Rel hydrolase (HD)): Yes

CCN(CC)C(=O)CN1CCN(c2ccc(NC(=O)Cc3ccc(C)cc3)c(C(=O)O)c2)CC1 [Compound 69]
ST (inhibition of the synthetase activity) (Rel synthetase (ST)): Yes
HD (inhibition of the hydrolase activity) (Rel hydrolase (HD)): Yes

Cc1c(Cc2ccccc2)c(=O)oc2cc(OCc3nnn[nH]3)ccc12 [Compound 18]
ST (inhibition of the synthetase activity) (Rel synthetase (ST)): Yes
HD (inhibition of the hydrolase activity) (Rel hydrolase (HD)): Yes

O=[N+]([O-])c1nn(Cc2cccc(-c3nc4c5cn[nH]c5ncn4n3)c2)cc1Cl [Compound 71]
ST (inhibition of the synthetase activity) (Rel synthetase (ST)): Yes
HD (inhibition of the hydrolase activity) (Rel hydrolase (HD)): Yes

O=C(O)CNS(=O)(=O)c1ccc2c(c1)NC(=O)CS2 [Compound 3]
ST (inhibition of the synthetase activity) (Rel synthetase (ST)): No
HD (inhibition of the hydrolase activity) (Rel hydrolase (HD)): Yes

COc1ccc2[nH]cc(CCNC(=O)c3nccnc3C(=O)O)c2c1 [Compound 29]
ST (inhibition of the synthetase activity) (Rel synthetase (ST)): No
HD (inhibition of the hydrolase activity) (Rel hydrolase (HD)): Yes

O=C(Cc1ccc(Cl)cc1)Nc1ccc(-c2ccc(NC(=O)Cc3ccc(Cl)cc3)c(C(=O)O)c2)cc1C(=O)O [Compound 72]
ST (inhibition of the synthetase activity) (Rel synthetase (ST)): Yes
HD (inhibition of the hydrolase activity) (Rel hydrolase (HD)): Yes

Cc1nc(N)ncc1C(=O)NCc1cccc(-c2nnn[nH]2)c1 [Compound 59]
ST (inhibition of the synthetase activity) (Rel synthetase (ST)): No
HD (inhibition of the hydrolase activity) (Rel hydrolase (HD)): Yes

CCCCCCc1c(C)c2ccc(OCc3nnn[nH]3)cc2oc1=O [Compound 16]
ST (inhibition of the synthetase activity) (Rel synthetase (ST)): Yes
HD (inhibition of the hydrolase activity) (Rel hydrolase (HD)): Yes

O=C1CCc2cc(-c3csc(NC(=O)c4cccc([N+](=O)[O-])c4)n3)ccc2N1 [Compound 7]
ST (inhibition of the synthetase activity) (Rel synthetase (ST)): No
HD (inhibition of the hydrolase activity) (Rel hydrolase (HD)): Yes

O=C1Nc2ccccc2/C1=N\c1cccc([N+](=O)[O-])c1 [Compound 39]
ST (inhibition of the synthetase activity) (Rel synthetase (ST)): Yes
HD (inhibition of the hydrolase activity) (Rel hydrolase (HD)): No

O=C(c1cc(-c2cccc(Cl)c2)[nH]n1)N1CCc2ccc([N+](=O)[O-])cc21 [Compound 30]
ST (inhibition of the synthetase activity) (Rel synthetase (ST)): No
HD (inhibition of the hydrolase activity) (Rel hydrolase (HD)): Yes

O=C1c2cccc3cc([N+](=O)[O-])cc(c23)C(=O)N1O [Compound 50]
ST (inhibition of the synthetase activity) (Rel synthetase (ST)): Yes
HD (inhibition of the hydrolase activity) (Rel hydrolase (HD)): No

Cc1c(Cc2ccccc2)c(=O)oc2cc(OCc3nnn[nH]3)c(Cl)cc12 [Compound 19]
ST (inhibition of the synthetase activity) (Rel synthetase (ST)): Yes
HD (inhibition of the hydrolase activity) (Rel hydrolase (HD)): Yes

O=c1oc2cc(OCc3nnn[nH]3)ccc2cc1-c1ccc(F)cc1 [Compound 14]
ST (inhibition of the synthetase activity) (Rel synthetase (ST)): Yes
HD (inhibition of the hydrolase activity) (Rel hydrolase (HD)): No

O=C(O)C[C@H](NC(=O)COc1ccc2nc3n(c(=O)c2c1)CCC3)C(=O)O [Compound 9]
ST (inhibition of the synthetase activity) (Rel synthetase (ST)): no
HD (inhibition of the hydrolase activity) (Rel hydrolase (HD)): yes

O=C(O)CCC(=Cc1ccc(OCC(=O)O)cc1)c1nc2ccccc2s1 [Compound 44]
ST (inhibition of the synthetase activity) (Rel synthetase (ST)): Yes
HD (inhibition of the hydrolase activity) (Rel hydrolase (HD)): Yes

Source: patent publication US20230128889A1, “REL/RELA/SPOT SMALL MOLECULES MODULATORS AND SCREENING METHODS” (priority 2020, published 2023)
